Experimental data from patent publication US5559156A, “Method for treating animals infected with Babesia spp” (Glaxo Wellcome, Inc., priority 1994, dated 1996).

Legend:
[1] = tested on: L. donovani; experiment: Activity against L. donovani in vivo in Balb/c mice; parameters: species or system L. donovani (in male Balb/c mice); conditions: for % Suppression of Liver Amastigotes: 0.25% cellacol
Procedure: Male Balb/c mice were infected intravenously with 5×10^6 L. donovani amastigotes obtained as in Example 5. One week after infection mice were randomly divided into groups of 5 and treatment with test compound commenced, using cellacol as the vehicle for the test compound. Four days after the completion of treatment all mice were sacrificed. Their livers were removed, weighted and impression smears were fixed with methanol and […] stained. The activity of the compound was determined from the number of amastigotes/500 liver cells in treated and untreated groups.

[2] = tested on: Leishmania donovani; experiment: Activity against Leishmania donovani in vitro in mouse peritoneal macrophages; format: cell-based, Leishmania donovani (in macrophages of CDl mice)
Procedure: Leishmania donovani was routinely maintained in male golden hamsters (Wright'strain). Amastigotes were isolated from the spleen of infected hamsters 6-8 weeks after infection for use in experimental studies.
The procedure of Neal and Croft (Journal of Antimicrobial Chemotherapy 14, 463-475 (1984) was followed. Mouse peritoneal macrophages were isolated from the peritoneal cavity of outbred CDl mice. Macrophages were cultured in Labtek eight-well tissue chamber slides in RPMI 1640 medium plus 10% heat-inactivated foetal calf serum at 37° in a 5% CO2 -air mixture. Cultures were infected with freshly isolated amastigotes 24 hours before the start of drug treatment. Finally, infected macrophages where incubated in the presence of medium containing the test compound for 7 days, medium being replaced on days 1, 3 and 5 after infection.
The compound was tested in a five-fold dilution series from 50 μM with four replicates at each dilution. Fine suspensions of the compound for testing were prepared by dilution with medium of solutions initially prepared in echanol.
The proportion of infected macrophages in Giemsa stained preparations was determined after 7 days exposure to the test compound. The ED50 value was calculated by a sigmoidal analysis.

[3] = tested on: B. divergens; experiment: Activity against B. divergens infection in gerbils, single oral dose at the time of infection; format: in vivo; conditions: for % Activity / Days to 0.1% Parasitaemia / Days to Redwater / Maximum % Parasitaemia / % Control % Parasitaemia (day 3): single dose
Procedure: Gerbils, in groups of 5, were injected intraperitoneally with gerbil erythrocytes infected with 10^7 B divergens. At the time of infection, the gerbils were given, per os by stomach tube, a single dose of test compound, diluted in methyl cellulose. The gerbils were assessed for the time to reach 0.1% parasitaemia and the time to reach haemoglobinurea (redwater). The maximum parasitaemia reached and suppression of parasitaemia relative to controls were assessed and the activity of the test compound calculated.

[4] = tested on: B-divergens; experiment: Activity against B-divergens in vitro in bovine red cells; format: cell-based; conditions: Bos taurus, read-out: IC50 Bovine
Procedure: (§1) Activity against Babesiosis in vitro
(§2) The activity of the test compound against B-divergens in vitro, both in bovine and human red cells was measured and compared with the activities of standard anti-babesials.

[5] = tested on: B-divergens; experiment: Activity against B-divergens in vitro in human red cells; format: cell-based; conditions: for IC50: read-out: IC50 Human
Procedure: as §1, §2

[6] = tested on: B-divergens; conditions: two patients; cited from earlier work

O=C1C(O)=C(C2CCC(c3ccc(Cl)cc3)CC2)C(=O)c2ccccc21 (mixture of isomers) [2-[4-(4-chlorophenyl)cyclohexyl]-3-hydroxy-1,4-naphthoquinone]
% Suppression of Liver Amastigotes ([1]; 100 mg/kg/day × 5, Oral): 0% | % Suppression of Liver Amastigotes ([1]; 100 mg/kg/day × 5, Subcutaneous): 30.5% | activity against L. donovani in vivo ([1]; subcutaneous): active when administered subcutaneously | activity against L. donovani in vitro ([2]; 50 μM): active at 50 μM concentration against L. donovani | inhibition at 0.4 µM ([2]; Leishmania donovani, Peritoneal macrophage, 168 h, 0.4 μM, 7 days): 6% | inhibition at 2 µM ([2]; Leishmania donovani, Peritoneal macrophage, 168 h, 2 μM, 7 days): 0% | inhibition at 10 µM ([2]; Leishmania donovani, Peritoneal macrophage, 168 h, 10 μM, 7 days): 14.7% | inhibition at 50 µM ([2]; Leishmania donovani, Peritoneal macrophage, 168 h, 50 μM, 7 days): 64.8% | EC50 ([2]; Leishmania donovani, Peritoneal macrophage, 168 h, 7 days exposure, sigmoidal analysis, P95% limits in brackets, read-out: ED50 [P95% limits]): 29500 nM

O=C1C(O)=C(C2CCC(c3ccc(Cl)cc3)CC2)C(=O)c2ccccc21 (centres unmarked) [2-[4-(4-chlorophenyl)cyclohexyl]-3-hydroxy-1,4-napthoquinone]
% Activity ([3]; 0.1 mg/kg per os): 0.0% | Days to 0.1% Parasitaemia ([3]; 0.1 mg/kg per os): 1.0 ± 0.0 days | Days to Redwater ([3]; 0.1 mg/kg per os): 3.0 ± 0.0 days | Maximum % Parasitaemia ([3]; 0.1 mg/kg per os): > 40% | % Control % Parasitaemia (day 3) ([3]; 0.1 mg/kg per os): 138.7 ± 18.6% | % Activity ([3]; 1.0 mg/kg per os): 86.1% | Days to 0.1% Parasitaemia ([3]; 1.0 mg/kg per os): 2.5 ± 0.57 days | Days to Redwater ([3]; 1.0 mg/kg per os): 4.0 ± 0.82 days | Maximum % Parasitaemia ([3]; 1.0 mg/kg per os): > 40% | % Control % Parasitaemia (day 3) ([3]; 1.0 mg/kg per os): 13.9 ± 4.3% | % Activity ([3]; 10.0 mg/kg per os): 100% | Days to 0.1% Parasitaemia ([3]; 10.0 mg/kg per os): 5.6 ± 2.5 days | Days to Redwater ([3]; 10.0 mg/kg per os): 9.2 ± 1.8 days | Maximum % Parasitaemia ([3]; 10.0 mg/kg per os): 4.02% | % Control % Parasitaemia (day 3) ([3]; 10.0 mg/kg per os): 0.0% | % Activity ([3]; 50.0 mg/kg per os): 100% | Days to 0.1% Parasitaemia ([3]; 50.0 mg/kg per os): > 10.0 days | Days to Redwater ([3]; 50.0 mg/kg per os): > 10.0 days | Maximum % Parasitaemia ([3]; 50.0 mg/kg per os): 0.0% | % Control % Parasitaemia (day 3) ([3]; 50.0 mg/kg per os): 0.0% | activity in vivo against B. divergens in gerbils ([3]; per os): active in vivo against B. divergens in gerbils

N=C(N)c1cccc(NC(=O)Nc2cccc(C(=N)N)c2)c1 [Amicarbalide isethionate]
IC50 ([4]; in vitro, bovine red cells): 460 nM | IC50 ([5]; in vitro, human red cells): 517 nM

CC[n+]1c(-c2ccccc2)c2cc(N)ccc2c2ccc(N)cc21 [Ethidium bromide]
IC50 [4]: 47 nM | IC50 ([5]; Homo sapiens): 69 nM

O=C(Nc1cccc(C2=NCCN2)c1)Nc1cccc(C2=NCCN2)c1 [Imizol]
use in patients to cure B-divergens [6]: used successfully in two patients to cure B-divergens | IC50 ([4]; in vitro, bovine red cells): 100 nM | IC50 ([5]; in vitro, human red cells): 310 nM

N=C(N)c1ccc(OCCCCCOc2ccc(C(=N)N)cc2)cc1 [Pentamidine isethionate]
IC50 ([4]; in vitro, bovine red cells): 360 nM | IC50 ([5]; in vitro, human red cells): 456 nM

C[n+]1cccc2cc(NC(=O)Nc3ccc4c(ccc[n+]4C)c3)ccc21 [Quinuronium sulphate]
IC50 ([4]; in vitro, bovine red cells): 34 nM | IC50 ([5]; in vitro, human red cells): 96 nM

O=C1C(O)=C([C@H]2CC[C@H](c3ccc(Cl)cc3)CC2)C(=O)c2ccccc21 [Test compound, 2-[trans-4-(4-chlorophenyl)cyclohexyl]-3-hydroxy-1,4-naphthoquinone]
IC50 ([4]; in vitro, bovine red cells): 17.9 nM | IC50 ([5]; in vitro, human red cells): 36.3 nM | effectiveness in vitro compared with Imizol ([5]; in vitro, Table 1 covers bovine and human red cells): more effective than Imizol in vitro
